# Tested on: KRAS PDC tumor spheroids (HUVEC+MSC), viability
# Test: Anticancer human tumor 254851-301-R-J1-PDC patient-derived colon carcinoma cell line growth inhibition [KRAS2]
# Settings: for IC50: curve of first compound; for viability, T/C: stronger effect = lower value
# In short: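 Combination screen of spheroid viability in tumor-cell co-cultures with endothelial (HUVEC) and mesenchymal stem cell stroma. Each agent was tested in half-log dilutions, topping at clinical Cmax or at 10 microM without a known Cmax.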
# [1] = second compound 0.1 µM, first compound 0.0316 µM
# [2] = second compound 0.1 µM, first compound 0.1 µM
# [3] = second compound 0.1 µM, first compound 0.316 µM
# [4] = second compound 0.1 µM, first compound 1 µM
# [5] = second compound 0.1 µM, first compound 3.16 µM
# [6] = second compound 0.316 µM, first compound 0.0316 µM
# [7] = second compound 0.316 µM, first compound 0.1 µM
# [8] = second compound 0.316 µM, first compound 0.316 µM
# [9] = second compound 0.316 µM, first compound 1 µM
# [10] = second compound 0.316 µM, first compound 3.16 µM
# [11] = second compound 1 µM, first compound 0.0316 µM
# [12] = second compound 1 µM, first compound 0.1 µM
# [13] = second compound 1 µM, first compound 0.316 µM
# [14] = second compound 1 µM, first compound 1 µM
# [15] = second compound 1 µM, first compound 3.16 µM
# [16] = second compound 3.16 µM, first compound 0.0316 µM
# [17] = second compound 3.16 µM, first compound 0.1 µM
# [18] = second compound 3.16 µM, first compound 0.316 µM
# [19] = second compound 3.16 µM, first compound 1 µM
# [20] = second compound 3.16 µM, first compound 3.16 µM
# [21] = second compound 10 µM, first compound 0.0316 µM
# [22] = second compound 10 µM, first compound 0.1 µM
# [23] = second compound 10 µM, first compound 0.316 µM
# [24] = second compound 10 µM, first compound 1 µM
# [25] = second compound 10 µM, first compound 3.16 µM
# 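Note: spheroids exposed to compounds for seven days before readout.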
# 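Throughout, for viability, T/C: 100% = DMSO vehicle control luminescence of the spheroids.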
Compound,IC50 (second compound 0.1 µM) [nM],IC50 (second compound 0.316 µM) [nM],IC50 (second compound 1 µM) [nM],IC50 (second compound 3.16 µM) [nM],IC50 (second compound 10 µM) [nM],"viability, T/C [1] [%]","viability, T/C [2] [%]","viability, T/C [3] [%]","viability, T/C [4] [%]","viability, T/C [5] [%]","viability, T/C [6] [%]","viability, T/C [7] [%]","viability, T/C [8] [%]","viability, T/C [9] [%]","viability, T/C [10] [%]","viability, T/C [11] [%]","viability, T/C [12] [%]","viability, T/C [13] [%]","viability, T/C [14] [%]","viability, T/C [15] [%]",further results
CC(=O)OC12COC1CC(O)C1(C)C(=O)C(O)C3=C(C)C(OC(=O)C(O)C(NC(=O)OC(C)(C)C)c4ccccc4)CC(O)(C(OC(=O)c4ccccc4)C21)C3(C)C (stereo not given) + CC1OCC2(CCN(c3cnc(Sc4ccnc(N)c4Cl)c(N)n3)CC2)C1N,154,175,168,80.1,58.4,89.1,59.8,33.6,24.1,24,85.8,61.6,38.1,23.2,22.6,89.6,60.5,36.1,26.6,22.9,"viability, T/C (second compound 0.1 µM, first compound 0.01 µM): 99.2%; viability, T/C (second compound 0.316 µM, first compound 0.01 µM): 93.3%; viability, T/C (second compound 1 µM, first compound 0.01 µM): 80.7%; viability, T/C (second compound 3.16 µM, first compound 0.01 µM): 73.3%; viability, T/C [16]: 72.3%; viability, T/C [17]: 44.5%; viability, T/C [18]: 22.3%; viability, T/C [19]: 17.1%; viability, T/C [20]: 18.6%; viability, T/C (second compound 10 µM, first compound 0.01 µM): 64.2%; viability, T/C [21]: 66.4%; viability, T/C [22]: 36.7%; viability, T/C [23]: 21.2%; viability, T/C [24]: 16.1%; viability, T/C [25]: 16.1%"
COc1cc2nccc(Oc3ccc(NC(=O)C4(C(=O)Nc5ccc(F)cc5)CC4)cc3)c2cc1OC + CC1OCC2(CCN(c3cnc(Sc4ccnc(N)c4Cl)c(N)n3)CC2)C1N,9270,9860,6690,> 10000,6020,100,103,95.6,112,102,98.7,112,100,90.5,84.4,85.2,92.4,91.7,80.3,71.6,"viability, T/C (second compound 0.1 µM, first compound 10 µM): 46.3%; viability, T/C (second compound 0.316 µM, first compound 10 µM): 48.7%; viability, T/C (second compound 1 µM, first compound 10 µM): 38.7%; viability, T/C [16]: 69.7%; viability, T/C [17]: 84.4%; viability, T/C [18]: 82.3%; viability, T/C [19]: 72.1%; viability, T/C [20]: 62.3%; viability, T/C (second compound 3.16 µM, first compound 10 µM): 56.5%; viability, T/C [21]: 77.8%; viability, T/C [22]: 75.6%; viability, T/C [23]: 74.4%; viability, T/C [24]: 68.1%; viability, T/C [25]: 63.9%; viability, T/C (second compound 10 µM, first compound 10 µM): 40.2%"

# From PubChem BioAssay AID1963868 (Molecular Pharmacology Branch, DTP, NCI, 2024)
